Data from PMC11990452, “Discovery of MAGL Inhibition by Lophine Derivatives: An Unexpected Finding from Chemiluminescent Assay Development” (Molecules, 2025).
pIC50: −log10 of the molar value.

Legend:
[1] = biological target: T1, human recombinant monoacylglycerol lipase (hMAGL) (Homo sapiens, UniProt Q99685); assay: fluorometric 7-HRO hydrolysis assay, residual activity at […]; assay type: biochemical
T1 construct: gene MGLL
T1 sequence (Q99685 1-303): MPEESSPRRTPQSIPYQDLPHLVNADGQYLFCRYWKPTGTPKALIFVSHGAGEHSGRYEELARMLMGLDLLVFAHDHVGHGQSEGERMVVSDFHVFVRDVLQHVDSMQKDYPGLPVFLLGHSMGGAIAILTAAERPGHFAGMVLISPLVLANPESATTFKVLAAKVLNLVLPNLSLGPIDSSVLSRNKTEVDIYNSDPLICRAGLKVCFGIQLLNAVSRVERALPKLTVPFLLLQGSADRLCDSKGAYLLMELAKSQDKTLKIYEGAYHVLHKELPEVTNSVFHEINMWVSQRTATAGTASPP

[2] = biological target: T1, human recombinant monoacylglycerol lipase (hMAGL); assay: fluorometric 7-HRO hydrolysis assay with recombinant hMAGL; dilution reversibility and Lineweaver-Burk kinetics; assay type: biochemical

Compound	fluorometric 7-HRO hydrolysis assay, residual activity at 50 nM-100 μM [1]	pIC50 [2]
Oc1ccc(-c2nc(-c3ccccc3)c(-c3ccccc3)[nH]2)cc1 [compound 1, 2-(4-Hydroxyphenyl)-4,5-Diphenylimidazole]	all tested compounds interact with MAGL, leading to a concentration-dependent reduction in enzyme activity	
CCCC(=O)Oc1ccc(-c2nc(-c3ccccc3)c(-c3ccccc3)[nH]2)cc1 [compound 2, Butyric Acid Ester of 2-(4-Hydroxyphenyl)-4,5-Diphenylimidazole]	all tested compounds interact with MAGL, leading to a concentration-dependent reduction in enzyme activity	
CCCCCCCC(=O)Oc1ccc(-c2nc(-c3ccccc3)c(-c3ccccc3)[nH]2)cc1 [compound 3, Octanoic Acid Ester of 2-(4-Hydroxyphenyl)-4,5-Diphenylimidazole]		4.68
CCCCCCCCCCCCCCCC(=O)Oc1ccc(-c2nc(-c3ccccc3)c(-c3ccccc3)[nH]2)cc1 [compound 4, Palmitic Acid Ester of 2-(4-Hydroxyphenyl)-4,5-Diphenylimidazole]		5.19
